Results as given in patent publication US20060160790A1, “Thioureas as factor Xa inhibitors” (Portola Pharmaceuticals, Inc., priority 2004, published 2006).

Molecular target: T1, human plasma protein factor Xa (Homo sapiens, UniProt P00742)
T1 construct: measure proteolytic activity of the enzyme (factor Xa) by following cleavage of paranitroanilide substrate; purchased Haematologic Technologies (Essex Junction, Vt.); host or cells: human plasma
Test: Factor Xa IC50 determination (cleavage of paranitroanilide substrate S-2765)
Type: biochemical
Details: fXa 1 nM, S2765 100 μM, Tris buffered saline pH 7.4, room temperature
Method: An in vitro assay for detecting and measuring inhibition activity against Factor Xa is as follows:
The substrate S-2765 (Z-D-Arg-Gly-Arg-pNA.HCl) was obtained from Diapharma (West Chester, Ohio).
The human plasma protein factor Xa was purchased from Haematologic Technologies (Essex Junction, Vt.).
All assays, which are performed in 96-well microtiter plates, measure proteolytic activity of the enzyme (factor Xa) by following cleavage of paranitroanilide substrate. The assay buffer used for proteolytic assays was Tris buffered saline (20 mM Tris, 150 mM NaCl, 5 mM CaCl2, 0.1% Bovine serum albumin (BSA), 5% Dimethly Sulfoxide (DMSO) pH 7.4). In a 96-well microtiter plate, inhibitor was serially diluted to give a range of concentrations from 0.01 nM to 10 μM (final). Duplicate sets of wells were assayed and control wells without inhibitor were included. Enzyme was added to each well, (fXa concentration=1 nM), the plate was shaken for 5 seconds and then incubated for 5 minutes at room temperature. S2765 was added (100 μM final) and the plate was shaken for 5 seconds (final liquid volume in each well was 200 μl). The degree of substrate hydrolysis was measured at 405 nm on a Thermomax plate reader (Molecular Devices, Sunnyvale, Calif.) for 2 minutes. The initial velocities (mOD/min), for each range of inhibitor concentrations, were fitted to a four parameter equation using Softmax data analysis software. The parameter C, derived from the resulting curve-fit, corresponded to the concentration for half maximal inhibition (IC50).

T1 sequence (P00742 235-488 limits assumed): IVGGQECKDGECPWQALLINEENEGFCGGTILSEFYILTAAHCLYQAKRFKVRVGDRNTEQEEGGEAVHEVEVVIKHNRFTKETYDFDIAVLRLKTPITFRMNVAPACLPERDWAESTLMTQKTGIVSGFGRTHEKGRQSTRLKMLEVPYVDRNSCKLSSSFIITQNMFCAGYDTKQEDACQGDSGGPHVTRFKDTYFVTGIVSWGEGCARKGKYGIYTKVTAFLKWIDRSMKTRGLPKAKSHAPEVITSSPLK
T1 sequence (P00742 41-179 partner limits assumed): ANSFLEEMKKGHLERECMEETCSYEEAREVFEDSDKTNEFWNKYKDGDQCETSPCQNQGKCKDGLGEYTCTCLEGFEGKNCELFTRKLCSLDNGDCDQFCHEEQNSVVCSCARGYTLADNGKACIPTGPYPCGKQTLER

| SMILES | IC50 [nM] |
| --- | --- |
| CN1CCC(C2CCN(C(=O)[C@H](NC(=S)Nc3ccc(Cl)cc3)c3ccccc3)CC2)CC1 [Example 37, (2R) 4-(1-methylpiperidin-4-yl)piperidin-1-yl-2-phenyl-2-(4-chlorophenylaminothiocarbonylamino)-acetamide] | ≥ 500 |
| O=C(Nc1ccc(-n2ccccc2=O)cc1F)[C@H](NC(=S)Nc1ccc(Cl)cc1)c1ccccc1 [Example 36, (2R) N-[4-(2-pyridon-1-yl)-2-fluorophenyl]-2-phenyl-2-(4-chlorophenylaminothiocarbonylamino)-acetamide] | ≤ 100 |
| Cc1cc(Br)ccc1NC(=S)N[C@H](C(=O)Nc1ccc(C(=N)N2CCCC2)cc1)c1ccccc1 [Example 19] | ≥ 500 |
| CN1CCC(N2CCN(C(=O)[C@H](NC(=S)Nc3ccc(Cl)cc3)c3ccccc3)CC2)CC1 [Example 27] | ≤ 100 |
| NS(=O)(=O)c1ccccc1-c1ccc(NC(=O)C(NC(=S)Nc2ccc(Cl)cc2)c2ccccc2)cc1 (stereo in doubt) [Example 32, (S) N-[4-(2-aminosulfonylphenyl)phenyl]-2-phenyl-2-(4-chlorophenylaminothiocarbonylamino)-acetamide] | 100 to 500 |
| N=C(c1ccc(NC(=O)[C@@H](NC(=S)Nc2ccc(Br)cc2)c2ccccc2)cc1)N1CCCCC1 [Example 14, (S) N-[4-(piperidinylimino)phenyl]-2-phenyl-2-(4-bromophenylaminothiocarbonylamino)-acetamide] | 100 to 500 |
| NS(=O)(=O)c1ccccc1-c1ccc(NC(=O)[C@H](NC(=S)Nc2ccc(Br)cn2)c2ccccc2)cc1 [Example 31, (R) N-[4-(2-aminosulfonylphenyl)phenyl]-2-phenyl-2-(5-bromopyridin-2-ylaminothiocarbonylamino)-acetamide] | 100 to 500 |
| N=C(c1ccc(NC(=O)C(NC(=S)Nc2ccc(Br)cc2)c2ccccc2)cc1)N1CCC1 (stereo not drawn) [Example 6] | ≤ 100 |
| C#Cc1ccc(NC(=S)NC(C(=O)Nc2ccc(C(=N)N3CCCC3)cc2)c2ccccc2)cc1 (stereo not drawn) [Example 11] | ≤ 100 |
| NS(=O)(=O)c1ccccc1-c1ccc(NC(=O)[C@@H](NC(=S)Nc2ccc(Br)cn2)c2ccccc2)cc1 [Example 30, (S) N-[4-(2-aminosulfonylphenyl)phenyl]-2-phenyl-2-(5-bromopyridin-2-ylaminothiocarbonylamino)-acetamide] | ≤ 100 |
| CCOC(=O)C1CCN(C(=N)c2ccc(NC(=O)C(NC(=S)Nc3ccc(Br)cc3)c3ccccc3)cc2)CC1 (stereo not drawn) [Example 8] | ≥ 500 |
| NS(=O)(=O)c1ccccc1-c1ccc(NC(=O)C(NC(=S)Nc2ccc(Cl)cc2)c2ccccc2)cc1 (stereo in doubt) [Example 33, (R) N-[4-(2-aminosulfonylphenyl)phenyl]-2-phenyl-2-(4-chlorophenylaminothiocarbonylamino)-acetamide] | ≤ 100 |
| N=C(c1ccc(NC(=O)[C@@H](NC(=S)Nc2ccc(Br)cc2C(F)(F)F)c2ccccc2)cc1)N1CCCC1 [Example 22] | ≥ 500 |
| O=C(Nc1ccc(N2CCOCC2=O)cc1)C(NC(=S)Nc1ccc(Cl)cc1)c1ccccc1 (stereo not drawn) [Example 25, N-[4-(3-oxo-morpholin-4-yl)phenyl]-2-phenyl-2-(4-chlorophenylaminothiocarbonylamino)-acetamide] | ≤ 100 |
| Cc1cc2cc(NC(=S)NCC(=O)Nc3ccc(C4=NCCN4C)cc3)ccc2o1 [Example 2, N-[4-(1-methyl-4,5-dihydro-1H-imidazol-2-yl)phenyl]-2-[(2-methylbenzo[b)furan-5-yl)aminothiocarbonylamino]-acetamide] | ≥ 500 |
| CC(C)C(NC(=S)Nc1ccc(Cl)cc1)C(=O)Nc1ccc(C2=NCCN2C)cc1 (stereo not drawn) [Example 24, N-[4-(1-methyl-4,5-dihydro-1H-imidazol-2-yl)phenyl]-2-isopropyl-2-(4-chlorophenylaminothiocarbonylamino]-acetamide] | ≤ 100 |
| CN(C)C(=N)c1ccc(NC(=O)C(NC(=S)Nc2ccc(Br)cc2)c2ccccc2)cc1 (stereo not drawn) [Example 4, N-[4-(dimethylaminoimino)phenyl]-2-phenyl-2-(4-bromophenylaminothiocarbonylamino)-acetamide] | ≤ 100 |
| N=C(c1ccc(NC(=O)[C@@H](NC(=S)Nc2ccc(Cl)cc2Cl)c2ccccc2)cc1)N1CCCC1 [Example 20] | ≥ 500 |

| SMILES | IC50 [nM] |
| --- | --- |
| N=C(c1ccc(NC(=O)C(NC(=S)Nc2ccc(Br)cc2)c2ccccc2)cc1)N1CCCC1 (stereo not drawn) [Example 5] | ≤ 100 |
| N=C(c1ccc(NC(=O)[C@@H](NC(=S)Nc2ccc(Br)cc2)c2ccccc2)cc1)N1CCCC1 [Example 13, (S) N-[4-(pyrrolidinylimino)phenyl]-2-phenyl-2-(4-bromophenylaminothiocarbonylamino)-acetamide] | ≤ 100 |
| CN1CCN=C1c1ccc(NC(=O)C(NC(=S)Nc2ccc(Br)cc2)c2ccccc2)cc1 (stereo not drawn) [Example 9, N-[4-(1-methyl-4,5-dihydro-1H-imidazol-2-yl)phenyl]-2-phenyl-2-(4-bromophenylaminothiocarbonylamino)-acetamide] | ≤ 100 |
| N=C(c1ccc(NC(=O)[C@@H](NC(=S)Nc2ccc(Br)cc2)c2ccccc2)cc1)N1CCCCCC1 [Example 15] | ≤ 100 |
| Cc1cc2cc(NC(=S)N[C@@H](CC(C)C)C(=O)Nc3ccc(C(=N)N(C)C)cc3)ccc2o1 [Example 3] | ≥ 500 |
| O=C(Nc1ccc(-n2ccccc2=O)cc1)[C@@H](NC(=S)Nc1ccc(Cl)cc1)c1ccccc1 [Example 34, (2S) N-[4-(2-pyridon-1-yl)phenyl]-2-phenyl-2-(4-chlorophenylaminothiocarbonylamino)-acetamide] | ≤ 100 |
| N=C(c1ccc(NC(=O)[C@@H](NC(=S)Nc2ccc(Cl)cc2)c2ccccc2)cc1)N1CCCC1 [Example 16] | ≤ 100 |
| N=C(c1ccc(NC(=O)[C@@H](NC(=S)Nc2c(Br)cc(Br)cc2Br)c2ccccc2)cc1)N1CCCC1 [Example 23] | ≥ 500 |
| N=C(c1ccc(NC(=O)[C@@H](NC(=S)Nc2ccc(Br)cc2F)c2ccccc2)cc1)N1CCCC1 [Example 17] | ≥ 500 |
| O=C(Nc1ccc(-n2ccccc2=O)cc1)[C@H](NC(=S)Nc1ccc(Cl)cc1)c1ccccc1 [Example 35, (2R) N-[4-(2-pyridon-1-yl)phenyl]-2-phenyl-2-(4-chlorophenylaminothiocarbonylamino)-acetamide] | ≤ 100 |
| N=C(c1ccc(NC(=O)[C@@H](NC(=S)Nc2ccc(Br)cc2OC(F)(F)F)c2ccccc2)cc1)N1CCCC1 [Example 18] | ≥ 500 |
| Cc1cc2cc(NC(=S)NC(C(=O)Nc3ccc(-c4ccccc4S(N)(=O)=O)cc3)c3ccccc3)ccc2o1 (stereo not drawn) [Example 28, N-[4-(2-aminosulfonylphenyl)phenyl]-2-phenyl-2-[(2-methylbenzo[b]furan-5-yl)aminothiocarbonylamino]-acetamide] | ≤ 100 |
| CN1CCC(N2CCN(C(=O)[C@@H](NC(=S)Nc3ccc(Cl)cc3)c3ccccc3)CC2)CC1 [Example 26] | ≤ 100 |
| N=C(c1ccc(NC(=O)[C@@H](NC(=S)Nc2ccc(Br)c(Cl)c2)c2ccccc2)cc1)N1CCCC1 [Example 21, (S) N-[4-(pyrrolidinylimino)phenyl]-2-phenyl-2-(3-chloro-4-bromophenylaminothiocarbonylamino)-acetamide] | ≥ 500 |
| COCCN(C)C(=N)c1ccc(NC(=O)C(NC(=S)Nc2ccc(Br)cc2)c2ccccc2)cc1 (stereo not drawn) [Example 7, N-{4-[(N-methyl-N-2-methoxyethyl)aminoimino]phenyl}-2-phenyl-2-(4-bromophenylaminothiocarbonylamino)-acetamide] | ≤ 100 |
| Cc1cc2cc(NC(=S)NCC(=O)Nc3ccc(C(=N)N(C)C)cc3)ccc2o1 [Example 1, N-[4-(dimethylaminoimino)phenyl]-2-[(2-methylbenzo[b]furan-5-yl)aminothiocarbonylamino]-acetamide] | ≥ 500 |
| N=C(c1ccc(NC(=O)C(NC(=S)Nc2ccc(F)cc2)c2ccccc2)cc1)N1CCCC1 (stereo not drawn) [Example 10] | ≤ 100 |
| NS(=O)(=O)c1ccccc1-c1ccc(NC(=O)C(NC(=S)Nc2ccc(Br)cc2)c2ccccc2)cc1 (stereo not drawn) [Example 29, N-[4-(2-aminosulfonylphenyl)phenyl]-2-phenyl-2-[(4-bromophenyl)aminothiocarbonylamino]-acetamide] | ≤ 100 |
